Data as given in US6403618B1, “Agent and method for controlling angiogenesis” (Novactyl, Inc., priority 2000, dated 2002).

Tests used:
MDA-468 cells [1] = experiment: DNA synthesis; type: cell-based; conditions: Homo sapiens, by 24 hr, read-out: DNA synthesis inhibited
Protocol: (§1) After 12-24 hours of treatment with 500 μM fusaric acid, there was no further increase in cell number. […] These floating cells were not viable. Within 30 hours of treatment there was a 65% decrease in cell number. […] After 96 hours, less than 10% of the original population remained attached to the dish and no change in cell number was noted after one additional week.

WI-38 cells [2] = experiment: Effect of different doses of fusaric acid on total cell protein; type: cell-based; conditions: WI-38, 1 mM
Protocol: (§2) In initial experiments to examine the effects of fusaric acid on cell growth and viability, WI-38 and LoVo cells were incubated for 24 to 72 hours in medium with or without various doses of fusaric acid (0.1-1 mM). The growth of both WI-38 and LoVo cells was inhibited by 500 μM fusaric acid in a time and dose dependent manner, as shown below in Table 2.

LoVo cells [3] = experiment: as above; type: cell-based
Protocol: as §2

[4] = tested on: colon carcinoma LoVo cells; experiment: Effect of fusaric acid on growth (cell number); type: cell-based
Protocol: After 30 hours of treatment with 500 μM fusaric acid, there was a prominent decrease in cell number. DNA synthesis was completely (100%) inhibited by 24 hours. When treated with 500 μM fusaric acid, the majority of the LoVo cells acquired a rounded morphology by 48 hours.
These floating cells were not viable. […] However, after 100 hours, an increase in cell number was noted after 25 additional hours.

[5] = tested on: colon carcinoma cell line; experiment: Viability of other human carcinoma cell types; type: cell-based; conditions: 48 hours of treatment
Protocol: (§3) As in previous examples, the following human cell lines were inhibited by similar concentrations of fusaric acid: Prostatic adenocarcinoma, skin carcinoma, colon carcinoma, liver adenocarcinoma and lung adenocarcinoma. For all these cell types, cell viability decreased by approximately 60% after 48 hours of treatment with fusaric acid.

[6] = tested on: lung adenocarcinoma cell line; experiment: Viability of other human carcinoma cell types; type: cell-based; conditions: 48 hours of treatment
Protocol: as §3

skin carcinoma cell line = experiment: Viability of other human carcinoma cell types; type: cell-based; conditions: 48 hours of treatment
Protocol: as §3

[7] = tested on: liver adenocarcinoma cell line; experiment: Viability of other human carcinoma cell types; type: cell-based; conditions: 48 hours of treatment
Protocol: as §3

[8] = tested on: Prostatic adenocarcinoma cell line; experiment: Viability of other human carcinoma cell types; type: cell-based; conditions: 48 hours of treatment
Protocol: as §3

[9] = tested on: human breast adenocarcinoma MDA-468 cells; experiment: Effect of fusaric acid on growth (cell number); type: cell-based
Protocol: as §1

LoVo cells [10] = experiment: Viability by trypan blue dye exclusion; type: cell-based; conditions: 500 μM
Protocol: As in the case of WI-38, LoVo cell viability after fusaric acid treatment was investigated in logarithmically growing and confluent cells, as shown in Tables 2 and 3. In logarithmically growing LoVo cells, approximately 38% of the attached cells were viable after 30 hours of treatment with fusaric acid. When the cells were treated for 78 hours, only 4.5% of the cell population survived the pronounced cytotoxic actions of fusaric acid. […] Thus, LoVo cells are much more sensitive to the cytotoxic actions of fusaric acid in both growing and confluent population of cells in comparison to normal WI-38 cells.

WI-38 cells [11] = experiment: Effect of fusaric acid on growth (cell number); type: cell-based
Text: The remaining cells were spread on the substratum in normal manner without any visible mitosis for 4 days after removal of the drug.

KB cells = experiment: Viability by trypan blue dye exclusion; type: cell-based, human; conditions: confluent cells, 500 μM, 48 h
Protocol: To examine KB cell viability in greater detail, the effects of fusaric acid were studied in logarithmically growing and confluent cells. In logarithmically growing KB cells 70% of the cells were viable after 48 hours in 500 μM fusaric acid. […] Thus, in contrast to LoVo cells, a significant proportion of the population of growing (70%) cells and virtually all (95%) of confluent KB cells resisted the pronounced cytotoxic action of fusaric acid (See Tables 3 and 4, above).

WI-38 cells [12] = experiment: Viability by trypan blue dye exclusion; type: cell-based; conditions: 500 μM
Protocol: To examine WI-38 cell viability in greater detail, the effects of fusaric acid were studied in logarithmically growing and contact inhibited confluent cells (Tables 2 and 3). In logarithmically growing WI-38 cells approximately 76% of the cells were viable after 30 hours of treatment with fusaric acid. When the cells were treated for 78 hours, only 26% of the cell population survived the pronounced cytotoxic actions of fusaric acid.

MDA-468 cells [13] = type: cell-based, human
Protocol: As in the case of WI-38, MDA-468 cell viability after fusaric acid treatment was investigated in logarithmically growing and confluent cells. In logarithmically growing MDA-468 cells, less than 20% of the attached cells were viable after 30 hours of treatment with fusaric acid. When the cells were treated for 48 hours, only 0.1% of the cell population survived the pronounced cytotoxic actions of fusaric acid. […] Thus, MDA-468 cells are extremely sensitive to the cytotoxic actions of fusaric acid in both growing and confluent population of cells in comparison to normal WI-38 lines studied.

[14] = 500 μM, within 30 hours of treatment
[15] = logarithmic growth, 30 h, listed as Fusaric Acid

CCCCc1ccc(C(=O)O)nc1 [fusaric acid]
inhibition at 500 µM (MDA-468 cells [1]): 100%
Monolayer Protein (WI-38 cells [2]; 24 h): 236 μg/dish
Monolayer Protein (WI-38 cells [2]; 48 h): 202 μg/dish
cytotoxicity (LoVo cells [3]; 1 mM fusaric acid, by 24 hours): extensive cytotoxicity
Monolayer Protein (LoVo cells [3]; LoVo, 0.5 mM, 48 h): 90 μg/dish
decrease in cell number [4, 14]: 60%
decline of cell population after removal of the drug ([4]; removal after 30 hours, up to approximately 100 hours): ~80%
cell viability decreased [5]: approximately 60%
cell viability decreased [6]: approximately 60%
cell viability decreased (skin carcinoma cell line): approximately 60%
cell viability decreased [7]: approximately 60%
cell viability decreased [8]: approximately 60%
decrease in cell number [9, 14]: 65%
original population remaining attached to the dish ([9]; drug removed after 30 hours, after 96 hours): less than 10%
% Survival (LoVo cells [10]; confluent cells, 48 h): 40%
% Survival (LoVo cells [10]; logarithmic growth, 30 h): approximately 38%
% Survival (LoVo cells [10]; [15]): 38.5%
% Survival (LoVo cells [10]; logarithmic growth, 78 h): 4.5%
decrease in cell number (WI-38 cells [11]; 30 hours with 500 μM, then 4 days in normal media): 30%
cells survived (WI-38 cells [11]; after removal of fusaric acid, 500 μM for 30 hours): > 95%
% Survival (KB cells): 95%
% Survival (WI-38 cells [12]; confluent cells, 48 h): 100%
% Survival (WI-38 cells [12]; [15]): 76.4%
% Survival (WI-38 cells [12]; logarithmic growth, 78 h): 26%
cells survived (MDA-468 cells [13]; confluent cells, 500 μM, 48 hours): 10%
attached cells viable (MDA-468 cells [13]; logarithmic growth, 30 hours): less than 20%
cell population survived (MDA-468 cells [13]; logarithmic growth, 48 hours): 0.1%
